In patent US11040117B2, “Treatment of a subtype of ASD” (Stalicla S.A., priority 2017, dated 2021):

Tested on: ASD phenotype 1 lymphoblastoid cell lines
Test: Biolog Phenotype Mammalian MicroArrays (PM-M): NADH production, colorimetric redox dye
Format: cell-based, human
Conditions: cells exposed to the substance; AUC and endpoint absorbance
Experimental: From all subjects, blood samples were collected and lymphoblastoid cell lines generated. Briefly, tubes containing anticoagulant citrate dextrose (ACD) were used to collect blood samples via venipuncture, in order to ensure that the blood cells remained metabolically active. The tubes were kept at room temperature and processed within 24 hours.
Cell lines were obtained by immortalization of lymphocytes from blood samples using Epstein-Barr virus.
Energy production of cells was measured using commercially available Phenotype Mammalian MicroArrays (PM-Ms, Biolog, Hayward, Calif., USA).
The compound in each well was designed to be used by the cells, either as the sole energy source or as the metabolic effector influencing the utilization of an energy source (α-D-glucose) added in the cell suspension. […] Before plating, cell viability and number were assessed utilizing a BioRad cell counter and a trypan blue dye. The concentration of live cells required for plating was 4×10^5 cells/mL, corresponding to 20,000 cells per well in a volume of 50 μL. […] Cells were incubated for 48 h at 37° C. in 5% CO2, using the modified Biolog IF-M1 medium.
The Biolog IF-M1 medium was modified for plates PM-M1 to M4 by adding the following to 100 mL of Biolog IF-M1: 1.1 mL of 100× penicillin/streptomycin solution, 0.16 mL of 200 mM glutamine (final concentration 0.3 mM), and 5.3 mL of Fetal Bovine Serum (FBS, final concentration 5%). For plates PM-M5 to M8, 5.5 mM α-D-glucose will be added in place of FBS.
During the 48-hour incubation, the only energy source the cells had was the chemical in the well. After this first incubation, Biolog Redox Dye Mix MB was added (10 μL/well) and the plates were incubated under the same conditions for an additional 24 hours. As the cells metabolized the energy source, tetrazolium dye in the media was reduced, producing a purple color according to the amount of NADH generated.
For the last 24 hours of the experiment, the plates were incubated in the Omnilog system, which collects optical density readings every 15 minutes, generating 96 data-points for each well. The system also elaborated the kinetic curve for the metabolic reaction in each well and extrapolated parameters such as slope, highest point, endpoint, area under the curve (AUC), and lag.
At the end of the 24-hour incubation, the plates were analyzed utilizing a microplate reader with readings at 590 and 750 nm. The first value (A590) indicated the highest absorbance peak of the redox dye and the second value (A750) gave a measure of the background noise. The relative absorbance (A590-750) was calculated per well.

Row | Substance | production of NADH in ASD phenotype 1 cells compared to TDs and non-phenotype 1 cells
1 | IL-1beta: Th1 cytokine | significantly lower levels of NADH
2 | PDGF-AB: platelet-derived growth factor AB | no significant differences
3 | IL-6: Th1 cytokine | significantly lower levels of NADH
4 | FGF-1(aFGF): growth factor that selectively targets the PI3K-Akt-mTOR by binding the receptor tyrosine kinase | significantly reduced production of NADH
5 | hGH(Somatotropin): growth factor that selectively targets the PI3K-Akt-mTOR by binding the receptor tyrosine kinase | significantly reduced production of NADH
6 | IGF-I: insulin-like growth factor 1; targets less specifically the PI3K-AKT-mTOR pathway in LCLs | no significant differences
